From US20210221785A1, “AMINO-PYRIMIDONYL DERIVATIVES, A PROCESS FOR THEIR PREPARATION AND PHARMACEUTICAL COMPOSITIONS CONTAINING THEM” (LES LABORATOIRES SERVIER, priority 2018, published 2021)

biological target: T1, His-His-USP7 (aa208-560, |C315A|) (Homo sapiens, UniProt Q93009, C315A); assay: Evaluation of the inhibition of USP7 by the Fluorescence Intensity (FLINT) readings; type: biochemical; settings: 0.25 nM His-His-USP7, compound incubated 60 minutes at 30° C., 500 nM Ubiquitin-Rhodamine-110 substrate; 50% reduction in kinetic rate
T1 construct: His-His-USP7 (aa208-560, |C315A|); His-His (N)
Experimental: USP7 activity was measured using Rhodamine-110 c-terminal labelled Ubiquitin as a substrate (UbiQ Bio). Incubation with USP7 results in the release of Rhodamine-110 leading to an increase in fluorescence which can be used in the continuous measurement of USP7 activity.
The USP7 reactions were performed in a 50 μL volume, in 384 well black solid low binding plates (Corning #3575). The reaction buffer consisted of 100 mM Bicine pH 8.0, 0.01% TritonX100, 1 mM TCEP, and 10% DMSO.
0.25 nM His-His-USP7 (aa208-560, |C315A|) was incubated with compound (final concentration 10% DMSO) for 60 minutes at 30° C. The reaction was then initiated by the addition of 500 nM Ubiquitin-Rhodamme-110 substrate and the plate read every 3 minutes for 21 minutes to measure the release of Rhodamine-110. Fluorescence Intensity (FLINT) readings were measured using a […] plate reader (Ex.485 nm, Em.535 nm).
The inhibition of increasing doses of compound was expressed as a percentage reduction in kinetic rate compared to the kinetic rates established between ‘DMSO only’ and ‘total inhibition’ controls (no USP7). The inhibitory concentrations that gave a 50% reduction in kinetic rate (IC50) were determined, from 11-point dose response cures, in XL-Fit using a 4-Parameter Logistic Model 205 (Sigmoidal Dose-Response Model).

T1 sequence (Q93009 208-560 C315A): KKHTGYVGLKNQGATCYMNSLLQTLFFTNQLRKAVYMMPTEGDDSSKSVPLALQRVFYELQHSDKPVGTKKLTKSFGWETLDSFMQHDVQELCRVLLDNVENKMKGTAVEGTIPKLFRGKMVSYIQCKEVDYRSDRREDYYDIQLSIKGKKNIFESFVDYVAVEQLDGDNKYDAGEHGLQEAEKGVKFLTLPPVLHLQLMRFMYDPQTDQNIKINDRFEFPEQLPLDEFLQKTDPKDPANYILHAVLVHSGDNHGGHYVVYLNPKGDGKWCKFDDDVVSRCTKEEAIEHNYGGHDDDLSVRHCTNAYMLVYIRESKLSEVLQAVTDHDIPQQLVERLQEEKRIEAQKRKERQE

SMILES | IC50
C#C[C@@]1(O)CC[C@@H](C(=O)N2CCC(O)(Cn3cnc(Oc4ccc(F)cc4)c(N)c3=O)CC2)[C@H](c2ccccc2)C1 (relative stereo) [Example 91, rel-5-amino-3-([1-[(1R,2R,4R)-4-ethynyl-4-hydroxy-2-phenyl-cyclohexanecarbonyl]-4-hydroxypiperidin-4-yl]methyl)-6-(4-fluorophenoxy)-3,4-dihydropyrimidin-4-one] | 0.289 µM
Nc1c(Oc2ccc(F)cc2)ncn(CC2(O)CCN(C(=O)[C@@H]3CC[C@](O)(Cc4cnccn4)C[C@H]3c3ccccc3)CC2)c1=O (relative stereo) [Example 98, rel-5-amino-6-(4-fluorophenoxy)-3-[(4-hydroxy-1-{([(1R,2R,4R)-4-hydroxy-2-phenyl-4-(pyrazin-2-ylmethyl)cyclohexyl]carbonyl}piperidin-4-yl)methyl]pyrimidin-4-one] | 0.223 µM
Nc1c(Oc2ccc(F)cc2)ncn(CC2(O)CCN(C(=O)[C@@H]3CC[C@@](O)(Cc4ccc(F)cc4)C[C@H]3c3ccccc3)CC2)c1=O (relative stereo) [Example 100, rel-5-amino-6-(4-fluorophenoxy)-3-[(1-{[(1R,2R,4S)-4-[(4-fluorophenyl)methyl]-4-hydroxy-2-phenylcyclohexyl]carbonyl}-4-hydroxypiperidin-4-yl)methyl]pyrimidin-4-one] | 0.244 µM
Cn1ccnc1C[C@@]1(O)CC[C@@H](C(=O)N2CCC(O)(Cn3cnc(Oc4ccc(F)cc4)c(N)c3=O)CC2)[C@H](c2ccccc2)C1 (relative stereo) [Example 101, rel-5-amino-6-(4-fluorophenoxy)-3-({4-hydroxy-1-[(1R,2R,4R)-4-hydroxy-4-[(1-methyl-1H-imidazol-2-yl)methyl]-2-phenyl-cyclohexanecarbonyl]piperidin-4-yl)}methyl)-3,4-dihydropyrimidin-4-one] | 0.363 µM
Nc1c(Oc2ccc(F)cc2)ncn(CC2(O)CCN(C(=O)[C@@H]3CC[C@](O)(c4ccccc4)C[C@H]3c3ccccc3)CC2)c1=O (relative stereo) [Example 102, rel-5-amino-6-(4-fluorophenoxy)-3-[(4-hydroxy-1-{[(1R,2R,4R)-4-hydroxy-2,4-diphenylcyclohexyl]carbonyl}piperidin-4-yl)methyl]pyrimidin-4-one] | 0.461 µM
Nc1c(Oc2ccc(F)cc2)ncn(CC2(O)CCN(C(=O)[C@@H]3CC[C@@](O)(c4ccccc4)C[C@H]3c3ccccc3)CC2)c1=O (relative stereo) [Example 103, rel-5-amino-6-(4-fluorophenoxy)-3-[(4-hydroxy-1-{[(1R,2R,4S)-4-hydroxy-2,4-diphenylcyclohexyl]carbonyl}piperidin-4-yl)methyl]pyrimidin-4-one] | 0.312 µM
Nc1c(Oc2ccccc2F)ncn(CC2(O)CCN(C(=O)[C@@H]3CCC(F)(F)C[C@H]3c3ccccc3)CC2)c1=O [Example 2, 5-amino-3-({1-[(1R,2R)-4,4-difluoro-2-phenylcyclohexane-1-carbonyl]-4-hydroxypiperidin-4-yl}methyl)-6-(2-fluorophenoxy)pyrimidin-4(3H)-one] | 0.304 µM
Nc1c(Oc2cc(F)cc(F)c2)ncn(CC2(O)CCN(C(=O)[C@@H]3CCC(F)(F)C[C@H]3c3ccccc3)CC2)c1=O [Example 8, 5-amino-6-(3,5-difluorophenoxy)-3-({1-[(1R,2R)-4,4-difluoro-2-phenylcyclohexane-1-carbonyl]-4-hydroxypiperidin-4-yl}methyl)pyrimidin-4(3H)-one] | 0.472 µM
Nc1c(Oc2ccccc2)ncn(C[C@]2(O)CCN(C(=O)[C@@H]3CCC(F)(F)C[C@H]3c3ccccc3)CC2(F)F)c1=O [Example 10, 5-amino-3-[[(4R)-1-[(1R,2R)-4,4-difluoro-2-phenyl-cyclohexanecarbonyl]-3,3-difluoro-4-hydroxy-4-piperidyl]methyl]-6-phenoxy-pyrimidin-4-one] | 4.32 µM
O=C([C@@H]1CCC(F)(F)C[C@H]1c1ccccc1)N1CCC(O)(Cn2cnc(Oc3ccccc3)c(NCC(F)(F)F)c2=O)CC1 [Example 17, 3-({1-[(1R,2R)-4,4-difluoro-2-phenylcyclohexane-1-carbonyl]-4-hydroxypiperidin-4-yl}methyl)-6-phenoxy-5-[(2,2,2-trifluoroethyl)amino]pyrimidin-4(3H)-one] | 1.25 µM
Nc1c(Oc2cccc(OC(F)(F)F)c2)ncn(CC2(O)CCN(C(=O)[C@@H]3CCC(F)(F)C[C@H]3c3ccccc3)CC2)c1=O [Example 18, 5-amino-3-({1-[(1R,2R)-4,4-difluoro-2-phenylcyclohexane-1-carbonyl]-4-hydroxypiperidin-4-yl}methyl)-6-[3-(trifluoromethoxy)phenoxy]pyrimidin-4(3H)-one] | 0.247 µM
Nc1c(Oc2cccc(S(F)(F)(F)(F)F)c2)ncn(CC2(O)CCN(C(=O)[C@@H]3CCC(F)(F)C[C@H]3c3ccccc3)CC2)c1=O [Example 21, 5-amino-3-({1-[(1R,2R)-4,4-difluoro-2-phenylcyclohexane-1-carbonyl]-4-hydroxypiperidin-4-yl}methyl)-6-[3-(pentafluoro-λ^6-sulfanyl)phenoxy]pyrimidin-4(3H)-one] | 0.716 µM
Nc1c(Oc2cccc(C(F)(F)F)c2)ncn(CC2(O)CCN(C(=O)[C@@H]3CCC(F)(F)C[C@H]3c3ccccc3)CC2)c1=O [Example 22, 5-amino-3-({1-[(1R,2R)-4,4-difluoro-2-phenylcyclohexane-1-carbonyl]-4-hydroxypiperidin-4-yl}methyl)-6-[3-(trifluoromethyl)phenoxy]pyrimidin-4(3H)-one] | 0.264 µM
N#Cc1cccc(Oc2ncn(CC3(O)CCN(C(=O)[C@@H]4CCC(F)(F)C[C@H]4c4ccccc4)CC3)c(=O)c2N)c1 [Example 25, 3-{[5-amino-1-({1-[(1R,2R)-4,4-difluoro-2-phenylcyclohexane-1-carbonyl]-4-hydroxypiperidin-4-yl}methyl)-6-oxo-1,6-dihydropyrimidin-4-yl]oxy}benzonitrile] | 0.203 µM

Compounds with a lower IC50, results first:

IC50 | SMILES
0.183 µM | Nc1c(Oc2cccc(F)c2)ncn(CC2(O)CCN(C(=O)[C@@H]3CCC(F)(F)C[C@H]3c3ccccc3)CC2)c1=O [Example 6, 5-amino-3-({1-[(1R,2R)-4,4-difluoro-2-phenylcyclohexane-1-carbonyl]-4-hydroxypiperidin-4-yl}methyl)-6-(3-fluorophenoxy)pyrimidin-4(3H)-one]
0.181 µM | COc1cc(OC)cc(Oc2ncn(CC3(O)CCN(C(=O)[C@@H]4CCC(F)(F)C[C@H]4c4ccccc4)CC3)c(=O)c2N)c1 [Example 7, 5-amino-3-({1-[(1R,2R)-4,4-difluoro-2-phenylcyclohexane-1-carbonyl]-4-hydroxypiperidin-4-yl}methyl)-6-(3,5-dimethoxyphenoxy)pyrimidin-4(3H)-one]
0.175 µM | Nc1c(Oc2ccc(CCCO)cc2)ncn(CC2(O)CCN(C(=O)[C@@H]3CCC(F)(F)C[C@H]3c3ccccc3)CC2)c1=O [Example 29, 5-amino-3-({1-[(1R,2R)-4,4-difluoro-2-phenylcyclohexane-1-carbonyl]-4-hydroxypiperidin-4-yl}methyl)-6-[4-(3-hydroxypropyl)phenoxy]pyrimidin-4(3H)-one]
0.151 µM | Nc1c(Sc2ccccc2)ncn(CC2(O)CCN(C(=O)[C@@H]3CCC(F)(F)C[C@H]3c3ccccc3)CC2)c1=O [Example 30, 5-amino-3-({1-[(1R,2R)-4,4-difluoro-2-phenylcyclohexane-1-carbonyl]-4-hydroxypiperidin-4-yl}methyl)-6-(phenylsulfanyl)pyrimidin-4(3H)-one]
0.111 µM | Nc1c(Oc2ccc(F)cc2)ncn(CC2(O)CCN(C(=O)[C@@H]3CCC(F)(F)C[C@H]3c3ccco3)CC2)c1=O (relative stereo) [Example 88, 5-amino-3-({1-[(1,2-trans)-4,4-difluoro-2-(furan-2-yl)cyclohexane-1-carbonyl]-4-hydroxypiperidin-4-yl}methyl)-6-(4-fluorophenoxy)pyrimidin-4(3H)-one]
0.0938 µM | COc1cccc(Oc2ncn(CC3(O)CCN(C(=O)[C@@H]4CCC(F)(F)C[C@H]4c4ccccc4)CC3)c(=O)c2N)c1 [Example 4, 5-amino-3-({1-[(1R,2R)-4,4-difluoro-2-phenylcyclohexane-1-carbonyl]-4-hydroxypiperidin-4-yl}methyl)-6-(3-methoxyphenoxy)pyrimidin-4(3H)-one]
0.085 µM | COC(=O)c1cccc(Oc2ncn(CC3(O)CCN(C(=O)[C@@H]4CCC(F)(F)C[C@H]4c4ccccc4)CC3)c(=O)c2N)c1 [Example 27, methyl 3-{[5-amino-1-({1-[(1R,2R)-4,4-difluoro-2-phenylcyclohexane-1-carbonyl]-4-hydroxypiperidin-4-yl}methyl)-6-oxo-1,6-dihydropyrimidin-4-yl]oxy}benzoate]
0.0466 µM | CC1(F)CC[C@@H](C(=O)N2CCC(O)(Cn3cnc(-c4ccc(F)cc4)c(N)c3=O)CC2)[C@H](c2ccccc2)C1 (relative stereo) [Example 127, rel-5-amino-3-[(1-{[(1R,2R)-4-fluoro-4-methyl-2-phenylcyclohexyl]carbonyl}-4-hydroxypiperidin-4-yl)methyl]-6-(4-fluorophenyl)pyrimidin-4-one]
